Results reported in patent US12011517B2, “Air freshening product” (The Procter & Gamble Company, priority 2019, dated 2024).

SMILES | Average Vapor Pressure (Torr) at 25 degrees Celsius
CCCCCCC/C=C/C=O [(E)-2-Decen-1-al] | 0.0674 Torr
CCC/C=C/C=O [(E)-2-Hexen-1-al] | 10.7 Torr
